Key:
Human squalene epoxidase = molecular target: T1, Human squalene epoxidase (Homo sapiens, UniProt Q14534); test: Human squalene epoxidase inhibition action; format: biochemical; conditions: solubilized Hep-G2 microsome fraction, 8 μM 3H-squalene, 37° C., 60 minutes, read-out: Inhibition rate at 3 μM concentration
T1 construct: The resultant supernatant is used as the squalene epoxidase fraction in the later-described test; endogenous in cells; host or cells: Hep-G2 human hepatoma cells (microsomes solubilized with Triton X-100)
T1 sequence (Q14534 whole entry): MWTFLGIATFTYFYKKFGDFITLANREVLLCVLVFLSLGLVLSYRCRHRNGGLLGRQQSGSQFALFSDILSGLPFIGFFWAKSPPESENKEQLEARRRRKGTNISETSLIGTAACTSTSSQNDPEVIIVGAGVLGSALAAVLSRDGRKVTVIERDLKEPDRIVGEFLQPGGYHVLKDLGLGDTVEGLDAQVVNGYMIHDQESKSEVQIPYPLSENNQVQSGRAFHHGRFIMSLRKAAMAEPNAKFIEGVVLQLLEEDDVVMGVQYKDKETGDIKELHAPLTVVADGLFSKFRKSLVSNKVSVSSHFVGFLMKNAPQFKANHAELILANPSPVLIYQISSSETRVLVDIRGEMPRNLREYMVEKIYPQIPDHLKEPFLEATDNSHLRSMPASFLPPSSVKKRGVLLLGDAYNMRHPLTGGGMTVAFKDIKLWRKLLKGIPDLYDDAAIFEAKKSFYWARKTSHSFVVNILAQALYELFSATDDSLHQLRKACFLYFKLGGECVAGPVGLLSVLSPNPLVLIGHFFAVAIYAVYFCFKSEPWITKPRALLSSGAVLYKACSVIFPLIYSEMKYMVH
Protocol: Squalene epoxidase inhibition action
(1) Preparation of squalene epoxidase
Human squalene epoxidase is prepared in accordance with the process disclosed in J. Biol. Chem., 245, 1670 (1970); ibid., 250, 1572 (1975).
Namely, human hepatoma (Hep-G2) cells are cultured at 37° C. under air containing 5% carbon dioxide. After completion of the culture, the cells are scraped and collected by centrifugation. The cells are suspended in 0.1M Tris-HCl buffer (pH 7.5) (1×10^8 cells/ml), the suspension is homogenized and centrifuged at 9750 Xg for 10 minutes, and then the sediment is washed with 0.1M Tris-HCl buffer (pH 7.5) and centrifuged at 105,000 Xg for 1 hour. The resultant microsome is suspended in 0.1M Tris-HCl buffer (pH 7.5) so that the protein amount becomes 20 mg/ml, and solubilized by stirring the suspension under ice cooling in the presence of 1% Triton X-100. After this solubilization treatment, the concentration of Triton X-100 is diluted to 0.125% with 1 mM EDTA and 1 mM dithiothreitol, and the dilution is centrifuged at 105,000 Xg for 1 hour. The resultant supernatant is used as the squalene epoxidase fraction in the later-described test.
(2) Assay of squalene epoxidase activity
Assay of human squalene epoxidase activity is carried out according to the method disclosed in J. Biol. Chem., 245, 1670 (1970).
Namely, 3 μl of a dimethyl sulfoxide solution of a test chemical is added to a solution consisting of 0.2 ml of the squalene epoxidase fraction [protein amount 0.4 mg, 0.1% Triton X-100, […] Tris-HCl buffer (pH 7.5)] prepared in (1), 100 μM FAD, 1 mM NADPH, 1 mM EDTA and 8 μM ^3 H-squalene-Tween 80 suspension to make the total volume 0.3 ml, and the mixture is subjected to reaction with shaking at 37° C. for 60 minutes. 0.3 ml of 10% potassium hydroxide-methanol solution is added to discontinue the reaction, and the mixture is heated at 75° C. for 1 hour. Then the non-saponified substance is extracted with petroleum ether and the extract is concentrated to dryness under a nitrogen stream. The resultant residue is dissolved in a small amount of ethyl ether, pre-coated Silicagel TCL is spotted with the extract, and development is carried out with benzeneethyl acetate (99.5:0.5). The position of the ^3 H-squalene-2,3 -epoxide in the TLC is confirmed using ergosterol acetate as a marker, and the ^3 H-squalene-2,3-epoxide portion in the TLC is cut out. The TLC piece is immersed in a toluene series scintillator and measurement is made using a liquid scintillation counter. Thereby, the inhibition rates (%) against squalene epoxidase at 3 μM concentration of compounds of this invention are determined, and the results are shown in the following Table 1.

cholesterol biosynthesis = test: Inhibition test of in vivo cholesterol biosynthesis in rat; design: species or system rat (female SD); conditions: 3 mg/kg oral, n = 5, rat; for 14C-cholesterol, dpm: dpm of produced 14C-cholesterol in 1 ml of plasma, control values 2282-3218 dpm; for Cholesterol biosynthesis inhibition rate: versus control group
Protocol: Inhibition test of in vivo cholesterol biosynthesis
In this in vivo test, female SD rats (5 weeks old) are used. The rats are raised for 9 days under an environment where illumination is applied with reversed day and night (dark from 6 a.m. to 6 p.m.), and meanwhile they can freely ingest a solid feed and water. A test chemical is orally administered two hours before dark 6 o'clock when cholesterol biosynthesis becomes maximum. The compound is dissolved in a middle-chain fatty acid triglyceride, and orally administered at 3 mg/kg in an amount of 0.5 ml/100 g body weight. Further, the same volume of the solvent (vehicle) used is administered to control animals. […] after the administration of the test chemical, 20μ Ci/100 g body weight of ^14 C-sodium acetate (56 m Ci/m mole) is intraperitoneally administered to the rats, respectively. At dark 6 o'clock blood is sampled from the abdominal artery of each animal under ether anesthesia and centrifuged to separate the plasma.
2 ml of 15% potassium hydroxide-methanol solution is added per ml of the plasma, and the mixture is heated at 75° C. for 3 hours to carry out saponification. Each sample is extracted twice, each time with 2 ml of petroleum ether, and the extract is washed with 2 ml of distilled water. Finally each extract is evaporated to dryness under a nitrogen stream.
The resultant residue is dissolved in a small amount of ethyl ether, and a pre-coated silica gel TLC is spotted with the total amount of the solution. This plate is developed with a solvent system of hexane/ethyl ether/acetic acid (85:15:4). Coloring is carried out with iodine, and radioactivity at the cholesterol part is assayed using a liquid scintillation counter.
The results (Table 2) are expressed by dpm values of produced ^14 C-cholesterol existing in 1 ml of each plasma. Further, the inhibition of cholesterol biosynthesis is calculated by comparing the amounts of ^14 C-cholesterol biosynthesis between the test groups and the control group.

rats (SD male) = test: Subacute toxicity test; format: in vivo, rat (SD male); conditions: 300 mg/kg per day oral for 7 days, 3 animals per group, 0.5% aqueous methylcellulose suspension
Protocol: Subacute toxicity test example
The compound of Example 34 was suspended in 0.5% aqueous methylcellulose solution and orally administered to groups of rats (SD male), each group consisting of 3 animals, at a rate of 300 mg/kg per day for 7 days.

| SMILES | inhibition at 3 µM (Human squalene epoxidase) [%] | 14C-cholesterol, dpm (cholesterol biosynthesis) [dpm] | Cholesterol biosynthesis inhibition rate (cholesterol biosynthesis) [%] | death and other toxic symptoms (rats (SD male)) |
| --- | --- | --- | --- | --- |
| COC(C)(C)C#CC#CC/C(=C\c1cccc(/C=C/c2cccc(-c3ccsc3)c2)c1)CO [Example 10, (E,E)-2-(6-methoxy-6-methyl-2,4-heptadiynyl)-3-[3-[2-[3-(3-thienyl)phenyl]ethenyl]phenyl]-2-propen-1-ol] | 100 | – | – | – |
| CC(C)(C)C#C/C=C/CC(CO)Cc1cccc(OCc2cccc(-c3ccsc3)c2)c1 (stereo not drawn) [Example 11, (E)-2-(6,6-dimethyl-2-hepten-4-ynyl)-3-[3-[3-(3-thienyl)phenylmethoxy]phenyl]propanol] | 88 | – | – | – |
| C/C(=C/c1cccc(COc2cccc(-c3ccsc3)c2)c1)C/C=C/C#CC(C)(C)C [Example 21, 3-[3-[3-[(1Z,4E)-2,8,8-trimethylnona-1,4-dien-6-ynyl]phenylmethoxy]phenyl]thiophene] | 100 | – | – | – |
| C/C(=C/c1cccc(OCc2cc(-c3ccsc3)cs2)c1)C/C=C/C#CC(C)(C)C [Example 22, 2-[3-[(1Z,4E)-2,8,8-trimethylnona-1,4-dien-6-ynyl]phenoxymethyl]-4-(3-thienyl)thiophene] | 100 | – | – | – |
| COCC(C/C=C/C#CC(C)(C)C)Cc1cccc(OCc2cccc(-c3ccsc3)c2)c1 (stereo not drawn) [Example 32, (E)-3-[3-[3-(2-methoxymethyl-8,8-dimethyl-4-nonen-6-ynyl)phenoxymethyl]phenyl]thiophene] | 100 | – | – | – |
| COC/C(=C/c1cccc(OCc2cc(-c3ccsc3)cs2)c1)C/C=C/C#CC(C)(C)C [Example 33, (E,E)-2-[3-(2-methoxymethyl-8,8-dimethylnona-1,4-dien-6-ynyl)phenoxymethyl]-4-(3-thienyl)thiophene] | 100 | – | – | – |
| COCC(C/C=C/C#CC(C)(C)C)Cc1cccc(/C=C/c2cccc(-c3ccsc3)c2)c1 (stereo not drawn) [Example 34, (E,E)-3-[3-[2-[3-(2-methoxymethyl-8,8-dimethyl-4-nonen-6-ynyl)phenyl]ethenyl]phenyl]thiophene] | 100 | 347 | 85 | death and other toxic symptoms were not observed at all |
| COC/C(=C/c1cccc(CCc2cccc(-c3ccsc3)c2)c1)C/C=C/C#CC(C)(C)C [Example 38, (E,E)-3-[3-[2-[3-(2-methoxymethyl-8,8-dimethylnona-1,4-dien-6-ynyl)phenyl]ethyl]phenyl]thiophene] | 100 | 350 | 85 | – |
| CC(O)C(C/C=C/C#CC(C)(C)C)Cc1cccc(/C=C/c2cccc(-c3ccsc3)c2)c1 (stereo not drawn) [Example 43, (E,E)-3-(6,6-dimethyl-2-hepten-4-ynyl)-4-[3-[2-[3-(3-thienyl)phenyl]ethenyl]phenyl]-2-butanol] | 100 | – | – | – |
| C=CC(C/C=C/C#CC(C)(C)C)Cc1cccc(/C=C/c2cccc(-c3ccsc3)c2)c1 (stereo not drawn) [Example 44] | 100 | – | – | – |

Now from value to compound, other results behind:

| inhibition at 3 µM (Human squalene epoxidase) [%] | SMILES | 14C-cholesterol, dpm (cholesterol biosynthesis) [dpm] | Cholesterol biosynthesis inhibition rate (cholesterol biosynthesis) [%] | death and other toxic symptoms (rats (SD male)) |
| --- | --- | --- | --- | --- |
| 100 | CC(C)(C)C#C/C=C/C/C(=C\CCC/C=C/c1cccc(-c2ccsc2)c1)CO [Example 1] | 275 | 91 | – |
| 100 | CC(C)(C)C#C/C=C/C/C(=C\CCCCOc1cccc(-c2ccsc2)c1)CO [Example 2, (E,E)-2-(6,6-dimethyl-2-hepten-4-ynyl)-7-[3-(3-thienyl)phenoxy]-2-hepten-1-ol] | – | – | – |
| 100 | CC(C)(C)C#C/C=C/C/C(=C\c1cccc(COc2cccc(-c3ccsc3)c2)c1)CO [Example 4, (E,E)-2-(6,6-dimethyl-2-hepten-4-ynyl)-3-[3-[3-(3-thienyl)phenoxymethyl]phenyl]-2-propen-1-ol] | – | – | – |
| 100 | CC(C)(C)C#C/C=C/C/C(=C\c1cccc(OCc2cc(-c3ccsc3)cs2)c1)CO [Example 5, (E,E)-2-(6,6-dimethyl-2-hepten-4-ynyl)-3-[3-[4-(3-thienyl)-2-thienylmethoxy]phenyl]-2-propen-1-ol] | – | – | – |
| 100 | CC(C)(C)C#C/C=C/C/C(=C\c1cccc(/C=C/c2cccc(-c3ccsc3)c2)c1)CO [Example 6, (E,E,E)-2-(6,6-dimethyl-2-hepten-4-ynyl)-3-[3-[2-[3-(3-thienyl)phenyl]ethenyl]phenyl]-2-propen-1-ol] | 871 | 73 | – |
| 100 | COC(C)(C)C#C/C=C/C/C(=C\c1cccc(/C=C/c2cccc(-c3ccsc3)c2)c1)CO [Example 8, (E,E,E)-2-(6-methoxy-6-methyl-2-hepten-4-ynyl)-3-[3-[2-[3-(3-thienyl)phenyl]ethenyl]phenyl]-2-propen-1-ol] | – | – | – |
| 100 | CC(C)(C)C#C/C=C/CC(CO)Cc1cccc(/C=C/c2cccc(-c3ccsc3)c2)c1 (stereo not drawn) [Example 12, (E,E)-2-(6,6-dimethyl-2-hepten-4-ynyl)-3-[3-[2-[3-(3-thienyl)phenyl]ethenyl]phenyl]propanol] | 1208 | 61 | – |
| 99 | C/C(=C/CCC/C=C/c1cccc(-c2ccsc2)c1)C/C=C/C#CC(C)(C)C [Example 18, 3-[3-[(1E,6Z,9E)-7,13,13-trimethyltetradeca-1,6,9-trien-11-ynyl]phenyl]thiophene] | – | – | – |
| 100 | C/C(=C/c1cccc(/C=C/c2cccc(-c3ccsc3)c2)c1)C/C=C/C#CC(C)(C)C [Example 23, 3-[3-[2-[3-[(1Z,4E)-2,8,8-trimethylnona-1,4-dien-6-ynyl]phenyl]ethenyl]phenyl]thiophene] | – | – | – |
| 100 | COC/C(=C/CCC/C=C/c1cccc(-c2ccsc2)c1)C/C=C/C#CC(C)(C)C [Example 29, (E,E,E)-3-[3-(7-methoxymethyl-13,13-dimethyltetradeca-1,6,9-trien-11-ynyl)phenyl]thiophene] | – | – | – |
| 100 | COC/C(=C/CCCCOc1cccc(-c2ccsc2)c1)C/C=C/C#CC(C)(C)C [Example 30, (E,E)-3-[3-(6-methoxymethyl-12,12-dimethyltrideca-5,8-dien-10-ynyloxy)phenyl]thiophene] | – | – | – |
| 100 | CSC/C(=C/CCCCOc1cccc(-c2ccsc2)c1)C/C=C/C#CC(C)(C)C [Example 42, (E,E)-3-[3-(12,12-dimethyl-6-methylthiomethyltrideca-5,8-dien-10-ynyloxy)phenyl]thiophene] | – | – | – |
